The target of this assay is T1, α-glucosidase type I from S. cerevisiae.
T1 construct: gene MAL12
Briefly: chromogenic pNPG hydrolysis, absorbance at […] nm, 96-well plate. Format: biochemical, Saccharomyces cerevisiae. Particulars: substrate p-nitrophenyl-α-D-glucopyranoside (20 µL of 5 mM stock), 0.1 M phosphate buffer pH 6.9, 37 °C, 15 min preincubation.

Molecules are shown by their SMILES. ≈ marks a conversion by molar mass, not a printed value.

By IC50 is commonly meant the point on the concentration scale where inhibition reaches its midpoint. Higher therefore signals weaker potency in that assay. Regarding `C[C@H]1O[C@H](O[C@H]2[C@H](O)[C@@H](O)[C@@H](O[C@H]3[C@H](O)[C@@H](O)C(O)O[C@@H]3CO)O[C@@H]2CO)[C@H](O)[C@@H](O)[C@@H]1N[C@H]1C=C(CO)[C@@H](O)[C@H](O)[C@H]1O` (stereo partly shown) [Acarbose], the “IC50” value is 3698.0 ± 76.5 µg/mL (≈ 5.73 mM).
